Assay results from ChEMBL document CHEMBL1275431, “Telavancin penetration into human epithelial lining fluid determined by population pharmacokinetic modeling and Monte Carlo simulation” (Antimicrob Agents Chemother, 2008).

How the values were obtained:
[1] = AUC (0 to infinity) in human epithelial lining fluid at 750 mg administered as single dose; assay type: ADME, tissue-based; set-up: dose 750 mg, time infinity
[2] = Penetration ratio, ratio of AUC in human epithelial lining fluid to fAUC in human plasma at 750 mg administered as single dose; assay type: ADME; settings: in vivo
[3] = Plasma protein binding in human plasma at 750 mg administered as single dose; assay type: ADME, organism-based; settings: read-out: PPB (converted)

AUC(0-inf) [1]: 74800 ng·h/mL | Ratio [2]: 1.01 | fraction unbound [3]: 0.1
Compound: CCCCCCCCCCNCCN[C@@]1(C)C[C@H](O[C@H]2[C@H](Oc3c4cc5cc3Oc3ccc(cc3Cl)[C@@H](O)[C@@H](NC(=O)[C@@H](CC(C)C)NC)C(=O)N[C@@H](CC(N)=O)C(=O)N[C@H]5C(=O)N[C@H]3C(=O)N[C@H](C(=O)N[C@H](C(=O)O)c5cc(O)c(CNCP(=O)(O)O)c(O)c5-c5cc3ccc5O)[C@H](O)c3ccc(c(Cl)c3)O4)O[C@H](CO)[C@@H](O)[C@@H]2O)O[C@@H](C)[C@H]1O [TELAVANCIN]
